A word on the IC50: it is the midpoint of a concentration-inhibition curve. Low values mean inhibition by little substance, high ones a need for much substance.

Results on 29 molecules are retold here after patent publication US20240092799A1, “MNK INHIBITORS” (Hepagene Therapeutics (HK) Limited, priority 2020, published 2024).

MNK2, sequence (Q9HBH9 whole entry): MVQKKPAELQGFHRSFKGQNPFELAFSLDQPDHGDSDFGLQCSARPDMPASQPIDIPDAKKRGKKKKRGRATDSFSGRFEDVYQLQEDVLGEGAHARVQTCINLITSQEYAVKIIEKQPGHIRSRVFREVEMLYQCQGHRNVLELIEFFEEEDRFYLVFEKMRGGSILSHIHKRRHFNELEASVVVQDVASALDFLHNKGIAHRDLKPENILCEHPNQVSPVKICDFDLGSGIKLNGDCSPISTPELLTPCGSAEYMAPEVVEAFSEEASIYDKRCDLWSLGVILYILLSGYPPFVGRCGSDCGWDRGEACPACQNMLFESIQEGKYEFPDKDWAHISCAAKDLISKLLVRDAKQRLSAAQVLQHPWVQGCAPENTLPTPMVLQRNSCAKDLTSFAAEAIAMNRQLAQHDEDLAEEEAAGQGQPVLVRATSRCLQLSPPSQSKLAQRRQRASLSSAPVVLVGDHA

For the experiment, the target named is MNK2 (Homo sapiens (Human), UniProt Q9HBH9). The experiment is described as follows: MNK Biochemical Enzymatic Assay (ADP-Glo), MNK2 binding assay. The protocol:
MNK Biochemical Enzymatic Assay. This protocol establishes the binding assays for MNK1 and MNK2 using ADP-Glo assay. MNK phosphorylates the substrate and converts ATP to ADP, which was detected by Envision and used to reflect the reminding activity of MNK. Reagents and equipment used in the assay are listed below, followed by the protocol.
• a) Add 50 μL compound to 384-well dilution plate • b) Dilute compound 1:3 in succession in DMSO for each column for 10+0 pts (refer to dilution plate map) • c) Transfer 0.1 μL diluted compound solution in each row to 384 assay plate using Echo, each column containing 2 replicates (refer to assay plate map) • d) Add 5 μL enzyme working solution to 384-well assay plate, centrifuge 1000 RPM for 1 min • e) Incubate at 25° C. for 15 min • f) Add 5 μL substrate working solution to initiate reaction • g) Incubate at 25° C. for 60 min • h) Add 10 μL ADP Glo reagent, centrifuge 1000 RPM for 1 min • i) Incubate at 25° C. for 60 min • j) Add 20 μL kinase detection reagent, centrifuge 1000 RPM for 1 min • k) Incubate at 25° C. for 60 min • l) Read on Envision for US LUM as RLU • m) Data analysis: IC50s were determined based on a non-linear regression analysis of data collected.
On the technique in general: ADP-Glo first removes unused ATP, then detects ADP through luciferase.
For the molecule `O=C1NC2(CCCCC2)c2cc(Nc3cc(N4CCOCC4)ncn3)sc21` [Compound XXIII-K, 2′-((6-Morpholinopyrimidin-4-yl)amino)spiro[cyclohexane-1,4′-thieno[2,3-c]pyrrol]-6′(5′H)-one], the half-inhibitory concentration (IC50) was more than 1000 nM. Under `Cc1cc(Nc2cc(N[C@H]3CCCOC3)ncn2)[n+]([O-])c2c1C(=O)NC21CCCCC1` [Compound XXIX-E, (S)-4′-methyl-5′-oxo-2′-((6-((tetrahydro-2H-pyran-3-yl)amino)pyrimidin-4-yl)amino)-5′,6′-dihydrospiro[cyclohexane-1,7′-pyrrolo[3,4-b]pyridine] 1′-oxide] stands 10 to 100 nM; under `O=C1NC2(CCCCC2)c2cc(Nc3cc(NC4CCOCC4)ncn3)sc21` [Compound XXIV-D, 2′-((6-((tetrahydro-2H-pyran-4-yl)amino)pyrimidin-4-yl)amino)spiro[cyclohexane-1,4′-thieno[2,3-c]pyrrol]-6′(5′H)-one], 100 to 1000 nM. As for `CN(C)CCNc1cc(Nc2cc3c(s2)C(=O)NC32CCCCC2)ncn1` [Compound XXIII-A, 2′-((6-((2-(Dimethylamino)ethyl)amino)pyrimidin-4-yl)amino)spiro [cyclohexane-1,4′-thieno[2,3-c]pyrrol]-6′(5′H)-one], the figure is 100 to 1000 nM; as for `Cc1cc(Nc2cc(NC(=O)N3CCCC3)ncn2)[n+]([O-])c2c1C(=O)NC21CCCCC1` [Compound XXIX-AQ, 4′-methyl-5′-oxo-2′-((6-(pyrrolidine-1-carboxamido)pyrimidin-4-yl)amino)-5′,6′-dihydrospiro[cyclohexane-1,7′-pyrrolo[3,4-b]pyridine] 1′-oxide], 10 to 100 nM; as for `Cc1cc(Nc2cc(NCC3CCOC3)ncn2)[n+]([O-])c2c1C(=O)NC21CCCCC1` (centres unmarked) [Compound XXIX-AV, 4′-methyl-5′-oxo-2′-((6-(((tetrahydrofuran-3-yl)methyl)amino)pyrimidin-4-yl)amino)-5′,6′-dihydrospiro[cyclohexane-1,7′-pyrrolo[3,4-b]pyridine] 1′-oxide], 10 to 100 nM. Under `CC(=O)N1CC(Nc2cc(Nc3cc(C)c4c([n+]3[O-])C3(CCCCC3)NC4=O)ncn2)C1` [Compound XXIX-AC, 2′-((6-((1-acetylazetidin-3-yl)amino)pyrimidin-4-yl)amino)-4′-methyl-5′-oxo-5′,6′-dihydrospiro[cyclohexane-1,7′-pyrrolo[3,4-b]pyridine] 1′-oxide] stands 10 to 100 nM; under `Cc1cc(Nc2cc(NC3CCCC3)ncn2)[n+]([O-])c2c1C(=O)NC21CCCCC1` [Compound XXIX-L, 2′-((6-(cyclopentylamino)pyrimidin-4-yl)amino)-4′-methyl-5′-oxo-5′,6′-dihydrospiro[cyclohexane-1,7′-pyrrolo[3,4-b]pyridine] 1′-oxide], 10 to 100 nM; under `O=C1NC2(CCCCC2)c2cc(Nc3cc(N[C@H]4CCC[C@@H]4O)ncn3)sc21` [Compound XXIII-X, 2′-((6-(((1S,2S)-2-hydroxycyclopentyl)amino)pyrimidin-4-yl)amino)spiro[cyclohexane-1,4′-thieno[2,3-c]pyrrol]-6′(5′H)-one], 10 to 100 nM.

As for `COCCNc1cc(Nc2cc3c(s2)C(=O)NC32CCCCC2)ncn1` [Compound XXIII-W, 2′-((6-((2-methoxyethyl)amino)pyrimidin-4-yl)amino)spiro[cyclohexane-1,4′-thieno[2,3-c]pyrrol]-6′(5′H)-one], the IC50 was 10 to 100 nM. Under `Cc1cc(Nc2cc(N[C@H]3C[C@H](O)C3)ncn2)[n+]([O-])c2c1C(=O)NC21CCCCC1` [Compound XXIX-T, trans-2′-((6-(((1r,3r)-3-hydroxycyclobutyl)amino)pyrimidin-4-yl)amino)-4′-methyl-5′-oxo-5′,6′-dihydrospiro[cyclohexane-1,7′-pyrrolo[3,4-b]pyridine] 1′-oxide] stands 10 to 100 nM. Under `Cc1c(N)ncnc1Nc1cc2c(s1)C(=O)NC21CCCCC1` [Compound X-D, 2′-((6-amino-5-methylpyrimidin-4-yl)amino)spiro[cyclohexane-1,4′-thieno[2,3-c]pyrrol]-6′(5′H)-one] stands 10 to 100 nM. Under `Cc1cc(Nc2cc(N[C@H]3CCC[C@@H]3O)ncn2)[n+]([O-])c2c1C(=O)NC21CCCCC1` [Compound XXIX-V, 2′-((6-(((1S,2S)-2-hydroxycyclopentyl)amino)pyrimidin-4-yl)amino)-4′-methyl-5′-oxo-5′,6′-dihydrospiro[cyclohexane-1,7′-pyrrolo[3,4-b]pyridine] 1′-oxide] stands 10 to 100 nM; under `Cc1cc(-c2cc(-c3cc(N)ncn3)no2)cc2c1C(=O)NC21CCCCC1` [Compound VII, 6′-(3-(6-Aminopyrimidin-4-yl)isoxazol-5-yl)-4′-methylspiro[cyclohexane-1,1′-isoindolin]-3′-one], more than 1000 nM; under `O=C1NC2(CCCCC2)c2cc(Nc3ncnc4cccnc34)sc21` [Compound XXX, 2′-(pyrido[3,2-d]pyrimidin-4-ylamino)spiro[cyclohexane-1,4′-thieno[2,3-c]pyrrol]-6′(5′H)-one], 10 to 100 nM. For `Cc1cc(Nc2ncnc(Nc3ccccn3)c2C)[n+]([O-])c2c1C(=O)NC21CCCCC1` [Compound XXIX-AN, 4′-methyl-2′-((5-methyl-6-(pyridin-2-ylamino)pyrimidin-4-yl)amino)-5′-oxo-5′,6′-dihydrospiro[cyclohexane-1,7′-pyrrolo[3,4-b]pyridine] 1′-oxide], the half-maximal inhibitory concentration (IC50) was more than 1000 nM. `Nc1cc(Nc2cc3c(s2)C(=O)NC32CCNCC2)ncn1` [Compound VIII-A, 2′-((6-aminopyrimidin-4-yl)amino)spiro[piperidine-4,4′-thieno[2,3-c]pyrrol]-6′(5′H)-one]: the concentration for half-maximal inhibition (IC50) was in the range of 10 to 100 nM. As for `NC1CCN(c2cc(Nc3cc4c(s3)C(=O)NC43CCCCC3)ncn2)C1` (centres unmarked) [Compound XXIII-D, 2′-((6-(3-Aminopyrrolidin-1-yl)pyrimidin-4-yl)amino)spiro[cyclohexane-1,4′-thieno[2,3-c]pyrrol]-6′(5′H)-one], the figure is more than 1000 nM; as for `Nc1cc(Nc2cc3n(n2)C2(CCCCC2)NC3=O)ncn1` [Compound XI, 2′-((6-Aminopyrimidin-4-yl)amino)spiro[cyclohexane-1,6′-imidazo[1,5-b]pyrazol]-4′(5′H)-one], more than 1000 nM; as for `CC(=O)N(C)c1cccc(Nc2cc(Nc3cc(C)c4c([n+]3[O-])C3(CCCCC3)NC4=O)ncn2)c1` [Compound XXIX-N, 4′-methyl-2′-((6-((3-(N-methylacetamido)phenyl)amino)pyrimidin-4-yl)amino)-5′-oxo-5′,6′-dihydrospiro[cyclohexane-1,7′-pyrrolo[3,4-b]pyridine] 1′-oxide], 10 to 100 nM. Under `Cc1cc(Nc2cc(NCCO)ncn2)[n+]([O-])c2c1C(=O)NC21CCCCC1` [Compound XXIX-I, 2′-((6-((2-hydroxyethyl)amino)pyrimidin-4-yl)amino)-4′-methyl-5′-oxo-5′,6′-dihydrospiro[cyclohexane-1,7′-pyrrolo[3,4-b]pyridine] 1′-oxide] stands 10 to 100 nM; under `O=C(Nc1cc(Nc2cc3c(s2)C(=O)NC32CCCCC2)ncn1)c1ccccc1` [Compound XX-E, N-(6-((6′-oxo-5′,6′-dihydrospiro[cyclohexane-1,4′-thieno[2,3-c]pyrrol]-2′-yl)amino)pyrimidin-4-yl)benzamide], 10 to 100 nM.

In turn, `O=C1NC2(CCCCC2)c2cc(Nc3cc(NC(=O)C4CCNC4)ncn3)sc21` (centres unmarked) [Compound XXIII-V, N-(6-((6′-oxo-5′,6′-dihydrospiro[cyclohexane-1,4′-thieno[2,3-c]pyrrol]-2′-yl)amino)pyrimidin-4-yl)pyrrolidine-3-carboxamide] registered an IC50 of 10 to 100 nM. Under `O=C1NC2(CCCCC2)c2cc(Nc3cc(N4CCCCC4)ncn3)sc21` [Compound XXIII-E, 2′-((6-(Piperidin-1-yl)pyrimidin-4-yl)amino)spiro[cyclohexane-1,4′-thieno[2,3-c]pyrrol]-6′(5′H)-one] stands more than 1000 nM; under `O=C1NC2(CCCCC2)c2cc(Nc3cc(NC(=O)C4CC4)ncn3)sc21` [Compound XX-A, N-(6-((6′-Oxo-5′,6′-dihydrospiro[cyclohexane-1,4′-thieno[2,3-c]pyrrol]-2′-yl)amino)pyrimidin-4-yl)cyclopropanecarboxamide], 10 to 100 nM; under `O=C1NC2(CCCCC2)c2cc(Nc3ncnc4sccc34)sc21` [Compound X-B, 2′-(thieno[2,3-d]pyrimidin-4-ylamino)spiro[cyclohexane-1,4′-thieno[2,3-c]pyrrol]-6′(5′H)-one], 100 to 1000 nM. Under `O=C1NC2(CCCCC2)c2cc(Nc3ncnc(NC(=O)C4CC4)c3Cl)sc21` [Compound XX-7, N-(5-Chloro-6-((6′-oxo-5′,6′-dihydrospiro[cyclohexane-1,4′-thieno[2,3-c]pyrrol]-2′-yl)amino)pyrimidin-4-yl)cyclopropanecarboxamide] stands 100 to 1000 nM; under `Nc1cc(Nc2cc3c(s2)C(=O)NC32CCCCC2)ncn1` [Compound X, 2′-((6-Aminopyrimidin-4-yl)amino)spiro[cyclohexane-1,4′-thieno[2,3-c]pyrrol]-6′(5′H)-one], 10 to 100 nM.

In turn, `O=C1NC2(CCCCC2)c2nc(Nc3cc(N[C@H]4C[C@H](O)C4)ncn3)sc21` [Compound XXVIII-N, Trans-2′-((6-(((1r,3r)-3-hydroxycyclobutyl)amino)pyrimidin-4-yl)amino)spiro[cyclohexane-1,4′-pyrrolo[3,4-d]thiazol]-6′(5′H)-one] returned an IC50 of 10 to 100 nM.
